Test results taken from EP0074229A1, “Triazole gastric anti-secretory agents” (PFIZER INC., priority 1981, dated 1983).

What was measured:
gastric acid secretion = assay: gastric antisecretory activity in pentagastrin-stimulated Heidenhain pouch dogs; assay type: in vivo; conditions: conscious Heidenhain pouch dogs, pentagastrin infusion, drug given intravenously; for inhibition in vivo at up to 10 mg/kg: Canis lupus familiaris, iv, doses of 10 mg/kg or less, lowest acid output after drug vs mean output before drug; for inhibition of acid: dosage of 1 mg/kg
From the text: The activity of the compounds of the present invention as antisecretory agents and histamine-H2 antagonists may be determined by standard pharmacological tests, including for example (1) measuring their ability to antagonize the actions of histamine which are not blocked by an antihistamine such as mepyramine and (2) measuring their ability to inhibit gastric acid secretion in the stomachs of Heidenhain pouch dogs that had previously been treated with pentagastrin in order to stimulate the secretion of gastric acid.
The gastric antisecretory activity of compounds of the present invention was determined in overnight fasted, conscious Heidenhain pouch dogs. Pentagastrin (Peptavlon-Ayerst) was used to stimulate acid output by continuous infusion into a superficial leg vein at doses earlier determined to stimulate near maximal acid output from the gastric pouch. Gastric juice was collected at 30 minute intervals following the start of a pentagastrin infusion and measured to the nearest 0.1 ml. Ten collections were taken for each dog during an experiment. Acid concentration was determined by titrating 1.0 ml of gastric juice to pH 7.4 with 0.1N sodium hydroxide using an Autoburette and a glass electrode pH meter (Radiometer).
[…] Gastric acid . antisecxetory effects were calculated by comparing the lowest acid output after drug administration with the mean acid output immediately before drug.

H2-receptor = target: T1, H2-receptor (Cavia porcellus, UniProt P47747); assay: histamine-H2 antagonist activity in isolated guinea pig right atria (histamine dose-response, dose-ratios, pA2); assay type: cell-based, Guinea pigs; conditions: antagonism of histamine-stimulated atrial rate, Krebs-Henseleit buffer pH 7.4, 32°
T1 construct: from tissue; host or cells: isolated guinea pig right atria
Protocol: The histamine-H2 antagonist activity of compounds of the present invention was determined by the following procedure: • Guinea pigs are killed rapidly with a blow to the head, the heart removed and the right atria dissected free. […] Individual atrial contractions are followed with a force-displacement transducer connected to a cardiotachometer and Grass polygraph recorder. After obtaining a dose-response curve to histamine, the bath containing each atrium is flushed several times with fresh buffer and the atria re-equilibrated to basal rates. Following the return to basal rate, test compounds are added at selected final concentrations and the histamine dose-response curve is again determined in the presence of antagonist. Results are-expressed as dose-ratios, the ratio of histamine concentrations required to produce one-half of maximal stimulation in the presence and absence of antagonist, and the apparent dissociation constant of the H2-receptor antagonist pA2 is determined.

T1 sequence (P47747 whole entry): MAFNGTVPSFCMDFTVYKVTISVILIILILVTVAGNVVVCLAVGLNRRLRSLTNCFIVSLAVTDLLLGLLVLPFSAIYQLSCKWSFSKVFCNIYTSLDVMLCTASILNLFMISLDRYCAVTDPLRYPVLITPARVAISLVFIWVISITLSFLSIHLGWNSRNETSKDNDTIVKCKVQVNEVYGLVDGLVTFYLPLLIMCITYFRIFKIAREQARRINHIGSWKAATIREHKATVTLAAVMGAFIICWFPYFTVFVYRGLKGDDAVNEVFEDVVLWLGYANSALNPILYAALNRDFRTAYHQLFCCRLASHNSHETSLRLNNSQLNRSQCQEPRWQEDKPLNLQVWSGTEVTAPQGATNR

| Kb (H2-receptor) | Compound | inhibition in vivo at up to 10 mg/kg (gastric acid secretion) | inhibition of acid (gastric acid secretion) |
| --- | --- | --- | --- |
|  | CNc1cc(-c2nc(C)n[nH]2)ccn1 [Example 2, 3'-Methyl-5'-(2-methylamino-4-pyridyl)-1',2',4'-triazole] | > 50% |  |
| ≤ 1000 nM | CCNc1cc(-c2nc(C)n[nH]2)ccn1 [Example 3, 3'-Methyl-5'-(2-ethylamino-4-pyridyl)-1',2',4'-triazole] | > 50% |  |
| ≤ 1000 nM | CCNc1cc(-c2nc(CC)n[nH]2)ccn1 [Example 6, 3'-Ethyl-5'-(2-ethylamino-4-pyridyl)-1',2',4'-triazole hemi-hydrate] |  |  |
|  | CCNc1cc(-c2nc(CO)n[nH]2)ccn1 [Example 8, 3'-Hydroxymethyl-5'-(2-ethylamino-4-pyridyl)-l',2',4'-triazole] | > 50% |  |
| ≤ 1000 nM | CCNc1cc(-c2nc(CCNC(=O)C=Cc3cnc(C)s3)n[nH]2)ccn1 [Example 12, N-[3-(2-methyl-5-thiazolyl)acryloyl]-2-[3'-(5'-(2-ethylamino-4-pyridyl)-1',2',4'-triazolyl)]ethylamine] | > 50% | greater than 50% |
|  | CCNc1cc(-c2nc(CCNC(=O)COc3ccccc3)n[nH]2)ccn1 [Example 17, N-Phenoxyacetyl-2-(3'-(5'-(2-ethylamino-4-pyridyl)-1',2',4'-triazolyl))'ethylamine hemihydrate] | > 50% |  |
|  | CCNc1cc(-c2n[nH]c(CCNC(=O)CCc3ccccc3)n2)ccn1 [Example 20, N-(3-Phenylpropionyl)-2-(3'-(5'-(2-ethylamino-4-pyridyl)-1',2',4'-triazolyl))ethylamine] | > 50% |  |
|  | CCNc1cc(-c2n[nH]c(CCNC(=O)COc3cccnc3)n2)ccn1 [Example 21, N-(3-Pyridyloxyacetyl)-2-(3'-(5'-(2-ethylamino-4-pyridyl)-1',2',4'-triazolyl))ethylamine bishydrate] | > 50% |  |
|  | CCNc1cc(-c2n[nH]c(CCNC(=O)c3ccc(O)nc3)n2)ccn1 [Example 24, N-(6-Hydroxynicotinoyl)-2-(3'-(5'-(2-ethylamino-4-pyridyl)-1',2',4'-triazolyl))ethylamine monohydrate] | > 50% |  |
|  | CCNc1cc(-c2n[nH]c(CCNC(=O)c3cccc(OC)c3)n2)ccn1 [Example 26, N-(3-Methoxybenzoyl)-2-(3'-(5'-(2-ethylamino-4-pyridyl)-1',2',4'-triazolyl))ethylamine] | > 50% |  |
|  | CCNc1cc(C(=O)NCCc2nc(-c3ccnc(NCC)c3)n[nH]2)ccn1 [Example 27, N-(2-Ethylaminoisonicotinoyl)-2-(3'-(5'-(2-ethylamino-4-pyridyl)-1',2',4'-triazolyl))ethylamine] | > 50% |  |
| ≤ 1000 nM | CCNc1cc(-c2n[nH]c(CCNC(=O)c3ccc(CN(C)C)o3)n2)ccn1 [Example 28] |  |  |
| ≤ 1000 nM | CCNc1cc(-c2n[nH]c(CCNC(=O)c3csc(N=C(N)N)n3)n2)ccn1 [Example 29] |  |  |
| ≤ 1000 nM | CCNc1cc(-c2n[nH]c(CCNC(=O)CCc3cccnc3)n2)ccn1 [Example 31, N-(3-Pyridylpropionoyl)-2-(3'-(5'-(2-ethylamino-4-pyridyl)-1',2',4'-triazolyl))ethylamine] | > 50% |  |
| ≤ 1000 nM | CCNc1cc(-c2n[nH]c(CCNC(=O)c3cccnc3)n2)ccn1 [Example 34, N-Nicotinoyl-2-(3'-(5'-(2-ethylamino-4-pyridyl)-1',2',4'-triazolyl))ethylamine] |  |  |
|  | CCNc1cc(-c2n[nH]c(CCNC(=O)c3ccncc3)n2)ccn1 [Example 35, N-(Isonicotinoyl)-2-(3'-(5'-(2-ethylamino-4-pyridyl)-1',2',4'-triazolyl))ethylamine] | > 50% |  |
|  | CCNc1cc(-c2n[nH]c(CCNC(N)=O)n2)ccn1 [Example 36, N-(2-(3'-(5'-(2-Ethylamino-4-pyridyl)-1',2',4'-triazolyl))-ethyl)urea hydrate] | > 50% |  |
| ≤ 1000 nM | CCNc1cc(-c2n[nH]c(CCNC(=NC#N)NC)n2)ccn1 [Example 39, N-Cyano-N'-(2-(3'-(5'-(2-ethylamino-4-pyridyl)-1',2',4'-triazolyl))ethyl)-N"-methylguanidine] |  |  |
| ≤ 1000 nM | CCNc1cc(-c2n[nH]c(CCNC(=S)NC)n2)ccn1 [Example 41, N'-(2-(3'-(5'-(2-Ethylamino-4-pyridyl)-1',2',4'-triazolyl))-ethyl)-N'-methylthiourea] |  | greater than 50% |
